From patent US9351974B2, “Substituted pteridinones for the treatment of cancer” (OSI Pharmaceuticals, LLC, priority 2011, dated 2016) come the findings set out here.

T1 sequence (P51812 whole entry): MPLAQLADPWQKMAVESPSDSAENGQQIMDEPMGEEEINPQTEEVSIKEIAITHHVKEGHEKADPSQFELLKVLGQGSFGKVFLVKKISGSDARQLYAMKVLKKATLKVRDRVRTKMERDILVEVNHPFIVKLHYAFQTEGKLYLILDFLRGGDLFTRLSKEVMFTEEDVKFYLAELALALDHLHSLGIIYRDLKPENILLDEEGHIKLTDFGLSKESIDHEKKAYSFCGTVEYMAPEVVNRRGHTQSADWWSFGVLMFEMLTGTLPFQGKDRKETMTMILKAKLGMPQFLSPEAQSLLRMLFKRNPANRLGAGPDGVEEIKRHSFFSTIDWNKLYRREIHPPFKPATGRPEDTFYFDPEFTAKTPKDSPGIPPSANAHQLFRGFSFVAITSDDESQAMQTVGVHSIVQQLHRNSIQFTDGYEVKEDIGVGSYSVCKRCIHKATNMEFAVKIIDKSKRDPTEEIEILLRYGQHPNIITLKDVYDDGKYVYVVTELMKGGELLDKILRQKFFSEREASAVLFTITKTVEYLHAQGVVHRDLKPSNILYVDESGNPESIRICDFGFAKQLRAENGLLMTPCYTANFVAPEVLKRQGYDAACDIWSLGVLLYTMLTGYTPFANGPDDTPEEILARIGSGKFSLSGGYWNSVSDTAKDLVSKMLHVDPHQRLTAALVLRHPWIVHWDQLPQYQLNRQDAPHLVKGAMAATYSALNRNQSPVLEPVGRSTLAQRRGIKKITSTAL

This experiment addresses T1, His-tagged full-length RSK2 (RPS6KA3) (Homo sapiens, UniProt P51812).
T1 construct: His-tagged full-length RSK2 (RPS6KA3, Invitrogen PV3323); His; purchased Invitrogen PV3323
As to the kind of experiment: RSK2 Omnia Assay for compound IC50 determination. The experiment is classed as biochemical. The settings on record: ATP 15 μM, n=2, read-out: Mean RSK2 Biochem IC50. As to the method: RSK1 & RSK2 Omnia Assay Protocol for Compound IC50 Determination
The Omnia Assay (Invitrogen) has been optimized for His-tagged full length RSK1 (RPS6KA1, Millipore 14-509) and for His-tagged full-length RSK2 (RPS6KA3, Invitrogen PV3323). In this assay system, Omnia ST Peptide 6 (Invitrogen KNZ1061) functions as a substrate for RSK1 or RSK2. Phosphorylation of this SOX-containing peptide results in an increase in fluorescence at 485 nm upon excitation at 360 nm.
Assays are carried out in 384-well OptiPlates (Perkin Elmer 6007290) in a total volume of 20 μL containing RSK1 ([…]) or RSK2 ([…]), Omnia ST Peptide 6 (5 μM), ATP (15 μM, Km=16.3 μM), and test compound (variable) in RSK assay buffer (50 mM HEPES, pH 7.5, 10 mM MgCl2, 0.01% Tween-20, 1% glycerol, 1 mM DTT, 1 mM EGTA, 0.01% BSA) with 1% DMSO.
IC50s for test compounds are typically determined using an 11-point three-fold serial dilution with a final assay concentration ranging either from 170 μM to […] or from 17 μM to […]. All compound concentrations are assayed in duplicate. Initial compound dilutions are prepared at 100× concentration in 100% DMSO from a 10 mM stock solution. Compounds are further diluted 1:25 in assay buffer resulting in a 4× concentrated solution.
To run the assay 5 μL of the above 4× concentrated compound solution (or 4% DMSO for positive controls) is added to the assay plate followed by 5 μL of a solution containing peptide (20 μM) and ATP (60 μM) in assay buffer. The reaction is initiated by the addition of 10 μL of RSK1 ([…]) or RSK2 ([…]) in assay buffer, or assay buffer alone for negative controls. The increase in fluorescence due to peptide phosphorylation is monitored continuously as a function of time using a Spectramax M5 plate reader (Molecular Devices) equipped with SoftMax Pro software.
The slopes from the linear portion of progress curves are used to determine IC50 values by non-linear curve-fitting to a four-parameter equation using GraphPad Prism (GraphPad Software, Inc.) or XLFit (IDBS). IC50's are determined in duplicate (n=2) and Ki values are calculated from IC50 values using the Cheng-Prusoff equation assuming a competitive mode of inhibition.
In the case of `CNS(=O)(=O)c1cccc(N2C(=O)[C@@H](C)N(C3CCCCC3)c3nc(Nc4ccc5[nH]ncc5c4)ncc32)c1` [Example 42, 3-[(7R)-8-cyclohexyl-2-(1H-indazol-5-ylamino)-7-methyl-6-oxo-7,8-dihydropteridin-5(6H)-yl]-N-methylbenzenesulfonamide], the concentration for half-maximal inhibition (IC50) (usually the midpoint of a concentration-inhibition curve) is not above 100 nM.
The figure for `C[C@@H]1C(=O)N(c2cccc(S(C)(=O)=O)c2)c2cnc(Nc3ccc4[nH]ncc4c3)nc2N1C1CCCCC1` [Example 43, (7R)-8-cyclohexyl-2-(1H-indazol-5-ylamino)-7-methyl-5-[3-(methylsulfonyl)phenyl]-7,8-dihydropteridin-6(5H)-one] is not above 100 nM; for `C[C@@H]1C(=O)N(c2cccc(N(C)C)c2)c2cnc(Nc3ccc4[nH]ncc4c3)nc2N1C1CCCCC1` [Example 44, (7R)-8-cyclohexyl-5-[3-(dimethylamino)phenyl]-2-(1H-indazol-5-ylamino)-7-methyl-7,8-dihydropteridin-6(5H)-one] it is not above 100 nM.
Under `C[C@@H]1C(=O)N(c2ccc3ccccc3c2)c2cnc(Nc3ccc4[nH]ncc4c3)nc2N1C1CCCCC1` [Example 45, (7R)-8-cyclohexyl-2-(1H-indazol-5-ylamino)-7-methyl-5-(naphthalen-2-yl)-7,8-dihydropteridin-6(5H)-one] stands not above 100 nM; under `CNC(=O)c1cccc(N2C(=O)[C@@H](C)N(C3CCCCC3)c3nc(Nc4ccc5[nH]ncc5c4)ncc32)c1` [Example 46, 3-[(7R)-8-cyclohexyl-2-(1H-indazol-5-ylamino)-7-methyl-6-oxo-7,8-dihydropteridin-5(6H)-yl]-N-methylbenzamide], not above 100 nM; under `C[C@@H]1C(=O)N(c2ccc(NS(C)(=O)=O)cc2)c2cnc(Nc3ccc4[nH]ncc4c3)nc2N1C1CCCCC1` [Example 47, N-{4-[(7R)-8-cyclohexyl-2-(1H-indazol-5-ylamino)-7-methyl-6-oxo-7,8-dihydropteridin-5(6H)-yl]phenyl}methanesulfonamide], not above 100 nM.
The figure for `COc1ccc(N2C(=O)[C@@H](C)N(C3CCCCC3)c3nc(Nc4ccc5[nH]ncc5c4)ncc32)cn1` [Example 48, (7R)-8-cyclohexyl-2-(1H-indazol-5-ylamino)-5-(6-methoxypyridin-3-yl)-7-methyl-7,8-dihydropteridin-6(5H)-one] is not above 100 nM; for `C[C@@H]1C(=O)N(c2ccc(F)c(F)c2)c2cnc(Nc3ccc4[nH]ncc4c3)nc2N1C1CCCCC1` [Example 49, (7R)-8-cyclohexyl-5-(3,4-difluorophenyl)-2-(1H-indazol-5-ylamino)-7-methyl-7,8-dihydropteridin-6(5H)-one] it is not above 100 nM; for `C[C@@H]1C(=O)N(c2cnc3ccccc3c2)c2cnc(Nc3ccc4[nH]ncc4c3)nc2N1C1CCCCC1` [Example 50, (7R)-8-cyclohexyl-2-(1H-indazol-5-ylamino)-7-methyl-5-(quinolin-3-yl)-7,8-dihydropteridin-6(5H)-one] it is not above 100 nM.
With `C[C@@H]1C(=O)N(c2cccc(C#N)c2)c2cnc(Nc3ccc4c(c3)CC(=O)N4)nc2N1C1CCCCC1` [Example 51, 3-[(7R)-8-cyclohexyl-7-methyl-6-oxo-2-[(2-oxo-2,3-dihydro-1H-indol-5-yl)amino]-7,8-dihydropteridin-5(6H)-yl]benzonitrile], the IC50 was not above 100 nM.
Under `COC(=O)c1ccc(N2C(=O)[C@@H](C)N(C3CCCCC3)c3nc(Nc4ccc5[nH]ncc5c4)ncc32)cc1` [Example 52, methyl 4-[(7R)-8-cyclohexyl-2-(1H-indazol-5-ylamino)-7-methyl-6-oxo-7,8-dihydropteridin-5(6H)-yl]benzoate] stands not above 100 nM.
The figure for `Cc1ccc(N2C(=O)[C@@H](C)N(C3CCCCC3)c3nc(Nc4ccc5[nH]ncc5c4)ncc32)cc1C#N` [Example 53, 5-[(7R)-8-cyclohexyl-2-(1H-indazol-5-ylamino)-7-methyl-6-oxo-7,8-dihydropteridin-5(6H)-yl]-2-methylbenzonitrile] is not above 100 nM; for `COc1cc(N2C(=O)[C@@H](C)N(C3CCCCC3)c3nc(Nc4ccc5[nH]ncc5c4)ncc32)ccc1F` [Example 54, (7R)-8-cyclohexyl-5-(4-fluoro-3-methoxyphenyl)-2-(1H-indazol-5-ylamino)-7-methyl-7,8-dihydropteridin-6(5H)-one] it is not above 100 nM; for `COc1ccc(N2C(=O)[C@@H](C)N(C3CCCCC3)c3nc(Nc4ccc5[nH]ncc5c4)ncc32)cc1F` [Example 55, (7R)-8-cyclohexyl-5-(3-fluoro-4-methoxyphenyl)-2-(1H-indazol-5-ylamino)-7-methyl-7,8-dihydropteridin-6(5H)-one] it is not above 100 nM.
Under `C[C@@H]1C(=O)N(c2cccc(C#N)c2)c2cnc(Nc3cc4cn[nH]c4cc3F)nc2N1C1CCCCC1` [Example 56, 3-[(7R)-8-cyclohexyl-2-[(6-fluoro-1H-indazol-5-yl)amino]-7-methyl-6-oxo-7,8-dihydropteridin-5(6H)-yl]benzonitrile] stands not above 100 nM.
Consider `C[C@@H]1C(=O)N(c2cnn(C)c2)c2cnc(Nc3ccc4[nH]ncc4c3)nc2N1C1CCCCC1` [Example 58, (7R)-8-cyclohexyl-2-(1H-indazol-5-ylamino)-7-methyl-5-(1-methyl-1H-pyrazol-4-yl)-7,8-dihydropteridin-6(5H)-one], for which the concentration for half-maximal inhibition (IC50) was not above 100 nM.
The figure for `Cc1cc(Nc2ncc3c(n2)N(C2CCCCC2)[C@H](C)C(=O)N3c2cccc(C#N)c2)cc2cn[nH]c12` [Example 59, 3-[(7R)-8-cyclohexyl-7-methyl-2-[(7-methyl-1H-indazol-5-yl)amino]-6-oxo-7,8-dihydropteridin-5(6H)-yl]benzonitrile] is 100 to 1000 nM.
With `CC1C(=O)N(c2ccccc2)c2cnc(Nc3ccc4c(c3)CC(=O)N4)nc2N1C1CCCCC1` (centres unmarked) [Example 60, 8-cyclohexyl-7-methyl-2-[(2-oxo-2,3-dihydro-1H-indol-5-yl)amino]-5-phenyl-7,8-dihydropteridin-6(5H)-one], the IC50 is not above 100 nM.
As to `CC1C(=O)N(c2ccccc2)c2cnc(Nc3ccc4[nH]ncc4c3)nc2N1C1CCCCC1` (centres unmarked) [Example 61, 8-cyclohexyl-2-(1H-indazol-5-ylamino)-7-methyl-5-phenyl-7,8-dihydropteridin-6(5H)-one], the half-maximal inhibitory concentration (IC50) is not above 100 nM.
`C[C@H]1C(=O)N(c2ccccc2)c2cnc(Nc3ccc4[nH]ncc4c3)nc2N1C1CCCCC1` [Example 62, (7S)-8-cyclohexyl-2-(1H-indazol-5-ylamino)-7-methyl-5-phenyl-7,8-dihydropteridin-6(5H)-one]: the IC50 was 100 to 1000 nM.
Under `C[C@@H]1C(=O)N(c2ccc(C(=O)O)cc2)c2cnc(Nc3ccc4[nH]ncc4c3)nc2N1C1CCCCC1` [Example 63, 4-[(7R)-8-cyclohexyl-2-(1 H-indazol-5-ylamino)-7-methyl-6-oxo-7,8-dihydropteridin-5(6H)-yl]benzoic acid] stands not above 100 nM.
With `CC1C(=O)N(c2ccccc2)c2cnc(Nc3ccc4[nH]ncc4c3)nc2N1C1CCCC1` (centres unmarked) [Example 64, 8-cyclopentyl-2-(1H-indazol-5-ylamino)-7-methyl-5-phenyl-7,8-dihydropteridin-6(5H)-one], the half-inhibitory concentration (IC50) is not above 100 nM.
The figure for `CC1C(=O)N(c2ccccc2)c2cnc(Nc3ccc4c(c3)CC(=O)N4)nc2N1C1CCCC1` (centres unmarked) [Example 65, 8-cyclopentyl-7-methyl-2-[(2-oxo-2,3-dihydro-1H-indol-5-yl)amino]-5-phenyl-7,8-dihydropteridin-6(5H)-one] is not above 100 nM; for `C[C@H]1C(=O)N(c2ccccc2)c2cnc(Nc3ccc4[nH]ncc4c3)nc2N1C1CCCC1` [Example 67, (7S)-8-cyclopentyl-2-(1H-indazol-5-ylamino)-7-methyl-5-phenyl-7,8-dihydropteridin-6(5H)-one] it is 100 to 1000 nM.
Under `C[C@@H]1C(=O)N(c2ccccc2)c2cnc(Nc3ccc4c(c3)CC(=O)N4)nc2N1C1CCCC1` [Example 68, (7R)-8-cyclopentyl-7-methyl-2-[(2-oxo-2,3-dihydro-1H-indol-5-yl)amino]-5-phenyl-7,8-dihydropteridin-6(5H)-one] stands not above 100 nM; under `C[C@@H]1C(=O)N(c2cccc(C#N)c2)c2cnc(Nc3ccc4[nH]ncc4c3)nc2N1C1CCCC1` [Example 69, 3-[(7R)-8-cyclopentyl-2-(1H-indazol-5-ylamino)-7-methyl-6-oxo-7,8-dihydropteridin-5(6H)-yl]benzonitrile], not above 100 nM.
